These results are taken from DBAASP.

SMILES strings stand for the structures. Values after ≈ are worked out from the molar mass of the structure shown. Where only a bound is given, the exact number is not on record here.

Holding throughout (experiment): ≥ marks a high value that may be exact or a test limit, other limits are often not marked, values filed in µg/mL are converted to µM
Assay [1] deals with Escherichia coli ATCC 25922.
Assay [2] deals with Staphylococcus aureus NCTC 8325.
Assay [3] has as its system Candida albicans ATCC 90028.
For assay [4], the system named is Escherichia coli ATCC 25726.
Assay [5] has as its system Staphylococcus aureus ATCC 25923.
In assay [6] the test system is Escherichia coli ATCC 8739.
In assay [7] the test system is Staphylococcus aureus ATCC 6538.
Assay [8] deals with Staphylococcus aureus ATCC 43300.
In assay [9] the test system is Bacillus subtilis ATCC 6633.

For the compound `CC[C@H](C)[C@H](NC(=O)CNC(=O)[C@@H](NC(=O)[C@H](CCCN=C(N)N)NC(=O)[C@@H](NC(=O)[C@H](CC(C)C)NC(=O)[C@H](CC(=O)O)NC(=O)[C@H](CCSC)NC(=O)CNC(=O)[C@H](C)NC(=O)[C@H](CCC(=O)O)NC(=O)[C@H](CCCCN)NC(=O)CNC(=O)[C@@H](NC(=O)[C@@H](NC(=O)[C@H](CCCCN)NC(=O)[C@@H](NC(=O)[C@@H](NC(=O)[C@H](CC(N)=O)NC(=O)[C@H](Cc1ccccc1)NC(=O)[C@@H](NC(=O)CNC(=O)[C@@H](NC(=O)[C@H](CCCCN)NC(=O)[C@H](C)NC(=O)[C@H](CCCCN)NC(=O)[C@H](CCCCN)NC(=O)[C@H](CCCCN)NC(=O)[C@H](CC(N)=O)NC(=O)[C@@H](NC(=O)[C@H](CCCCN)NC(=O)[C@@H]1CCCN1C(=O)[C@H](Cc1ccccc1)NC(=O)[C@H](CC(C)C)NC(=O)CN)[C@@H](C)CC)[C@@H](C)O)C(C)C)[C@@H](C)CC)[C@@H](C)CC)[C@@H](C)O)C(C)C)[C@@H](C)CC)[C@@H](C)O)C(=O)N[C@@H](CC(=O)O)C(=O)N[C@H](C(=O)N[C@H](C(=O)NCC(=O)N[C@H]1CSSC[C@@H](C(=O)O)NC(=O)[C@H](CCC(=O)O)NC(=O)CNC(=O)[C@H](CCCCN)NC(=O)[C@H]([C@@H](C)CC)NC(=O)[C@H](CCCCN)NC1=O)[C@@H](C)CC)[C@@H](C)O` [GLFPKINKKKAKTGVFNIIKTVGKEAGMDLIRTGIDTIGCKIKGEC], the results for the MIC in [1] and in [2] were 1 µM (≈ 4.93 µg/mL) and 12 µM (≈ 59.2 µg/mL), respectively.
For `CC[C@H](C)[C@H](NC(=O)CNC(=O)[C@H](CC(N)=O)NC(=O)[C@H](CC(C)C)NC(=O)[C@H](CC(C)C)NC(=O)[C@H](CCCCN)NC(=O)CNC(=O)[C@@H](NC(=O)[C@@H](NC(=O)[C@@H]1CCCN1C(=O)[C@H](CC(C)C)NC(=O)[C@@H](NC(=O)[C@@H](NC(=O)[C@@H]1CCCN1C(=O)[C@H](CC(C)C)NC(=O)[C@@H](N)Cc1ccccc1)C(C)C)[C@@H](C)CC)C(C)C)[C@@H](C)CC)C(=O)N[C@@H](CC(C)C)C(N)=O` [FLPVILPVIGKLLNGIL], the MIC in [1] was greater than 50 µM; in assay [2] it was 25 µM (≈ 45.5 µg/mL); in assay [3] it was no less than 50 µM.
On to `CC[C@H](C)[C@H](NC(=O)[C@H](C)NC(=O)CN)C(=O)N[C@@H](CCCCN)C(=O)N[C@@H](CC(=O)O)C(=O)N[C@@H](C)C(=O)N[C@@H](CC(C)C)C(=O)N[C@@H](CCCCN)C(=O)NCC(=O)N[C@@H](C)C(=O)N[C@@H](C)C(=O)N[C@@H](CCCCN)C(=O)N[C@H](C(=O)N[C@H](C(=O)N[C@@H](C)C(=O)N[C@H](C(=O)N[C@@H](CCC(=O)O)C(=O)N[C@@H](CC(C)C)C(=O)N[C@@H](CC(C)C)C(=O)N[C@@H](CCCCN)C(=O)N[C@@H](CCCCN)C(=O)N[C@@H](C)C(=O)N[C@@H](CCC(N)=O)C(=O)N[C@H]1CSSC[C@@H](C(=O)O)NC(=O)[C@H]([C@@H](C)O)NC(=O)[C@H](CCCCN)NC(=O)[C@H](CCC(=O)O)NC(=O)[C@H](CC(C)C)NC(=O)[C@H](CCCCN)NC1=O)C(C)C)C(C)C)[C@@H](C)O` [GAIKDALKGAAKTVAVELLKKAQCKLEKTC], for which the MIC in assay [4] and in [5] was 20 µM (≈ 62.5 µg/mL) each time.
Turning to `CC[C@H](C)[C@H](NC(=O)[C@H](CCC(=O)O)NC(=O)[C@H](CO)NC(=O)[C@H](C)NC(=O)[C@H](CC(C)C)NC(=O)[C@H](C)NC(=O)[C@H](CCC(N)=O)NC(=O)CNC(=O)[C@H](Cc1ccccc1)NC(=O)[C@H](CCCCN)NC(=O)[C@H](CCCCN)NC(=O)[C@H](C)NC(=O)[C@H](CO)NC(=O)[C@H](Cc1cnc[nH]1)NC(=O)[C@H](CC(C)C)NC(=O)[C@H](Cc1ccccc1)NC(=O)[C@H](CCCCN)NC(=O)CNC(=O)[C@@H](NC(=O)CN)C(C)C)C(=O)N[C@@H](CCSC)C(=O)N[C@@H](CCCCN)C(=O)N[C@@H](CO)C(=O)O` [GVGKFLHSAKKFGQALASEIMKS], the results for the MIC in assay [4] and in [5] were no less than 100 µM and greater than 100 µM, respectively.
As to `CC[C@H](C)[C@H](NC(=O)CNC(=O)[C@H](CCCCN)NC(=O)[C@H](CC(C)C)NC(=O)[C@@H](NC(=O)[C@H](CC(C)C)NC(=O)[C@H](CC(N)=O)NC(=O)[C@H](CCCCN)NC(=O)[C@@H](NC(=O)[C@H](C)NC(=O)[C@H](CCCCN)NC(=O)CNC(=O)CNC(=O)[C@@H](NC(=O)[C@H](CCCCN)NC(=O)[C@H](CO)NC(=O)[C@H](Cc1ccccc1)NC(=O)[C@@H](NC(=O)[C@@H](N)CCCN=C(N)N)[C@@H](C)CC)[C@@H](C)CC)[C@@H](C)CC)[C@@H](C)CC)C(=O)N[C@@H](CCCCN)C(=O)N[C@@H](CC(N)=O)C(=O)N[C@H](C(=O)NCC(=O)N[C@@H](CCCCN)C(=O)N[C@@H](CCC(=O)O)C(=O)N[C@H](C(=O)NCC(=O)N[C@@H](CCSC)C(=O)N[C@@H](CC(=O)O)C(=O)N[C@H](C(=O)N[C@H](C(=O)N[C@@H](CCCN=C(N)N)C(=O)N[C@H](C(=O)NCC(=O)N[C@H](C(=O)N[C@@H](CC(=O)O)C(=O)N[C@H](C(=O)N[C@@H](C)C(=O)NCC(=O)N[C@H]1CSSC[C@@H](C(=O)O)NC(=O)[C@H](CCC(=O)O)NC(=O)CNC(=O)[C@H](CCCCN)NC(=O)[C@H]([C@@H](C)CC)NC(=O)[C@H](CCCCN)NC1=O)C(C)C)[C@@H](C)CC)[C@@H](C)O)[C@@H](C)CC)C(C)C)C(C)C)[C@@H](C)CC` [RIFSKIGGKAIKNLILKGIKNIGKEVGMDVIRTGIDVAGCKIKGEC], the MIC in assay [6] was 3.1 µM (≈ 15.1 µg/mL); in [7] it was 3.1 µM (≈ 15.1 µg/mL); in assay [8], 12.5 µM (≈ 61 µg/mL); in [3], no less than 50 µM; in assay [9], 12.5 µM (≈ 61 µg/mL).
On to `CC[C@H](C)[C@H](NC(=O)[C@H](C)NC(=O)[C@H](CC(=O)O)NC(=O)[C@H](CC(C)C)NC(=O)[C@H](CC(C)C)NC(=O)CN)C(=O)N[C@@H](CCCCN)C(=O)N[C@@H](CC(=O)O)C(=O)N[C@H](C(=O)N[C@@H](C)C(=O)N[C@@H](CCC(N)=O)C(=O)N[C@@H](CC(N)=O)C(=O)N[C@@H](CC(C)C)C(=O)N[C@@H](Cc1ccccc1)C(=O)N[C@@H](C)C(=O)N[C@@H](CC(N)=O)C(=O)N[C@H](C(=O)N[C@@H](CC(C)C)C(=O)N[C@@H](CC(=O)O)C(=O)N[C@@H](CCCCN)C(=O)N[C@H](C(=O)N[C@@H](CCCCN)C(=O)N[C@H]1CSSC[C@@H](C(=O)O)NC(=O)[C@H](CCCCN)NC(=O)[C@H]([C@@H](C)O)NC(=O)[C@H](Cc2ccccc2)NC(=O)[C@H](CCCCN)NC1=O)[C@@H](C)CC)C(C)C)[C@@H](C)O` [GLLDAIKDTAQNLFANVLDKIKCKFTKC], for which the minimum inhibitory concentration (MIC) is 50 µM (≈ 155 µg/mL) in [1], no less than 50 µM in assay [2] and no less than 50 µM in assay [3].
`CC[C@H](C)[C@H](NC(=O)[C@H](CC(C)C)NC(=O)[C@H](CCCN=C(N)N)NC(=O)CNC(=O)[C@@H](NC(=O)[C@@H](NC(=O)[C@@H]1CCCN1C(=O)[C@H](CC(C)C)NC(=O)[C@@H](N)Cc1ccccc1)[C@@H](C)CC)C(C)C)C(=O)N[C@@H](CO)C(=O)NCC(=O)N[C@@H](CC(C)C)C(=O)N[C@@H](CC(C)C)C(N)=O` [FLPIVGRLISGLL]: the MIC stood at 125 µM (≈ 175 µg/mL) in assay [1] and 15 µM (≈ 21 µg/mL) in [2].
As to `CC[C@H](C)[C@@H]1NC(=O)[C@H](C)NC(=O)[C@@H](NC(=O)[C@@H](NC(=O)[C@@H](NC(=O)[C@H](CCCCN)NC(=O)[C@H](C)NC(=O)[C@H](C)NC(=O)[C@H](CCSC)NC(=O)CNC(=O)[C@H](C)NC(=O)[C@@H](NC(=O)[C@@H](NC(=O)[C@@H]2CCCN2C(=O)[C@H](Cc2ccccc2)NC(=O)[C@@H](N)Cc2ccccc2)[C@@H](C)CC)[C@@H](C)CC)C(C)C)[C@@H](C)CC)CSSC[C@@H](C(=O)O)NC(=O)[C@H](CCCCN)NC(=O)[C@H](CCCCN)NC(=O)[C@H]([C@@H](C)O)NC1=O` [FFPIIAGMAAKVICAITKKC], the MIC in [1] was 13 µM (≈ 27.6 µg/mL); in assay [2], 3 µM (≈ 6.37 µg/mL); in [3], 3 µM (≈ 6.37 µg/mL).
Consider `CC[C@H](C)[C@@H]1NC(=O)[C@H](CCCCN)NC(=O)[C@@H](NC(=O)[C@H](CCCCN)NC(=O)[C@H](CC(C)C)NC(=O)[C@H](CCCCN)NC(=O)[C@H](CC(=O)O)NC(=O)[C@H](CC(C)C)NC(=O)[C@H](CC(C)C)NC(=O)[C@@H](NC(=O)[C@@H](NC(=O)[C@H](C)NC(=O)[C@@H](NC(=O)[C@H](CC(N)=O)NC(=O)[C@H](CCCCN)NC(=O)[C@H](C)NC(=O)[C@@H](NC(=O)[C@H](CC(N)=O)NC(=O)[C@H](CCCCN)NC(=O)[C@H](C)NC(=O)[C@@H](NC(=O)[C@H](CC(=O)O)NC(=O)[C@H](CCSC)NC(=O)[C@H](Cc2ccccc2)NC(=O)CN)[C@@H](C)O)C(C)C)C(C)C)C(C)C)[C@@H](C)O)CSSC[C@@H](C(=O)O)NC(=O)CNC(=O)CNC(=O)[C@H]([C@@H](C)O)NC1=O` [GFMDTAKNVAKNVAVTLLDKLKCKITGGC], for which the MIC was no less than 100 µM in assay [6]; 25 µM (≈ 75.9 µg/mL) in assay [7]; 100 µM (≈ 304 µg/mL) in assay [8]; no less than 100 µM in [3]; 12.5 µM (≈ 38 µg/mL) in [9].
For the compound `CC[C@H](C)[C@@H]1NC(=O)[C@H](C)NC(=O)[C@@H](NC(=O)[C@H](Cc2ccccc2)NC(=O)[C@@H](NC(=O)[C@H](CCCCN)NC(=O)[C@@H]2CCCN2C(=O)[C@H](CC(C)C)NC(=O)[C@H](Cc2ccccc2)NC(=O)[C@H](CCCCN)NC(=O)[C@H](C)NC(=O)[C@H](C)NC(=O)[C@@H](NC(=O)CNC(=O)[C@H](C)NC(=O)[C@@H](NC(=O)[C@@H](NC(=O)[C@@H]2CCCN2C(=O)[C@H](CC(C)C)NC(=O)[C@@H](N)Cc2ccccc2)C(C)C)[C@@H](C)CC)C(C)C)[C@@H](C)CC)CSSC[C@@H](C(=O)O)NC(=O)[C@H](CCCCN)NC(=O)[C@H](CCCCN)NC(=O)[C@H]([C@@H](C)O)NC1=O` [FLPVIAGVAAKFLPKIFCAITKKC], the MIC in [1] is 7 µM (≈ 18 µg/mL); in assay [2] it was 4 µM (≈ 10.3 µg/mL); in [3], 8 µM (≈ 20.6 µg/mL).

By MIC is commonly meant the lowest concentration found to suppress growth.
